According to patent US9586936B2, “Heteroarylamine derivatives as protein kinase inhibitors” (KOREA INSTITUTE OF SCIENCE AND TECHNOLOGY, priority 2014, dated 2017):

How the values were obtained:
[1] = molecular target: (Homo sapiens, UniProt P09769); experiment: kinase inhibition activity, full kinase panel; assay type: biochemical; conditions: 1 μM of the compound; read-out: kinase activity inhibited (% inhibition)
Procedure: (§1) In order to measure the inhibition activity (% inhibition) of the compound of the present invention against protein kinases, a biochemical assay was conducted using a full kinase panel consisting of 340 kinases. As a representative compound of the present invention, N-(2,6-dichloro-3,5-dimethoxyphenyl)-1-(6-((4-(4-ethylpiperazin-1-yl)phenyl)amino)pyrimidin-4-yl)-1H-benz[d]imidazol-2-amine synthesized in Example 1 was used.
(§2) The kinases whose activity is inhibited by 50% or more when treated with 1 μM of the compound of Example 1 are listed in Table 1.

ACK1 = ACK1 (Homo sapiens, UniProt Q07912); experiment: kinase inhibition activity, full kinase panel; assay type: biochemical; conditions: 1 μM of the compound; read-out: kinase activity inhibited (% inhibition)
Procedure: as §1, §2

ALK = ALK (Homo sapiens, UniProt Q9UM73); experiment: kinase inhibition activity, full kinase panel; assay type: biochemical; conditions: 1 μM of the compound; read-out: kinase activity inhibited (% inhibition)
Procedure: as §1, §2

FMS = FMS (Homo sapiens, UniProt P07333); experiment: kinase inhibition activity, full kinase panel; assay type: biochemical; conditions: 1 μM of the compound; read-out: kinase activity inhibited (% inhibition)
Procedure: as §1, §2

LCK = LCK (Homo sapiens, UniProt P06239); experiment: kinase inhibition activity, full kinase panel; assay type: biochemical; conditions: 1 μM of the compound; read-out: kinase activity inhibited (% inhibition)
Chain of LCK (P06239 whole entry): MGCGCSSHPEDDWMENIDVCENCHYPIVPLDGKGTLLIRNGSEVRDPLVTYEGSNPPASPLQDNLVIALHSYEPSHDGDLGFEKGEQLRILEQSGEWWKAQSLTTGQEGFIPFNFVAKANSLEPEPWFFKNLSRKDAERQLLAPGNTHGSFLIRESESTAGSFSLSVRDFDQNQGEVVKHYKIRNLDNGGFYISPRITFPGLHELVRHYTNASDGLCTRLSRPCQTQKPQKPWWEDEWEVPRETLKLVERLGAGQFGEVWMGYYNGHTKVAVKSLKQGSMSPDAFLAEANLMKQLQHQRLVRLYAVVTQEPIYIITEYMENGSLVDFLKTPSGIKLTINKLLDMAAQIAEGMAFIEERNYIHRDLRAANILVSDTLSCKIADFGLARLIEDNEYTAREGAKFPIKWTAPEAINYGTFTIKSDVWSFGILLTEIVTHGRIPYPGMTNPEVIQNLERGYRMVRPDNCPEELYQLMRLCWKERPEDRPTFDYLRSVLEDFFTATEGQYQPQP
Procedure: as §1, §2

SIK1 = SIK1 (Homo sapiens, UniProt P57059); experiment: kinase inhibition activity, full kinase panel; assay type: biochemical; conditions: 1 μM of the compound; read-out: kinase activity inhibited (% inhibition)
Chain of SIK1 (P57059 whole entry): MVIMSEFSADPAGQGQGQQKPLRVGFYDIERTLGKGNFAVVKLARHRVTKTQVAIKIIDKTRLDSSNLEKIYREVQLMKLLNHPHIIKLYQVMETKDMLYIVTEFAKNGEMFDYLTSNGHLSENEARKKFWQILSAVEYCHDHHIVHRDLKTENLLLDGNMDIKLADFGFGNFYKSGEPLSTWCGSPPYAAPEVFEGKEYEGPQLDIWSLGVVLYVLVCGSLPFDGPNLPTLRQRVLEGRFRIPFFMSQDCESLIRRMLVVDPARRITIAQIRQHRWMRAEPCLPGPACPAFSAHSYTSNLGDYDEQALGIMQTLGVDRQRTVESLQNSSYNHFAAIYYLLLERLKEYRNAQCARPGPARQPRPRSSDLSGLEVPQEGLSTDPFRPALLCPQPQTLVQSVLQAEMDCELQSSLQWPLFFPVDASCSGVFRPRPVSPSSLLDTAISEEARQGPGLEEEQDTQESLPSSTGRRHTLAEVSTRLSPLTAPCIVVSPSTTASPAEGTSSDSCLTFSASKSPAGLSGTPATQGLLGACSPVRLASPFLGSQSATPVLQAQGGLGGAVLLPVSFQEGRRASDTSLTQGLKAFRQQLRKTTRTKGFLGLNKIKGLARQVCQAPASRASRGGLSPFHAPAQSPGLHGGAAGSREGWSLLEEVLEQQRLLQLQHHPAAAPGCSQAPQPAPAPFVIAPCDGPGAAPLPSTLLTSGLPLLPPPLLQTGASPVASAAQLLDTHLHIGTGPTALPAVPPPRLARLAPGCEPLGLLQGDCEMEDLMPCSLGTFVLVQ
Procedure: as §1, §2

TAOK1 = TAOK1 (Homo sapiens, UniProt Q7L7X3); experiment: kinase inhibition activity, full kinase panel; assay type: biochemical; conditions: 1 μM of the compound; read-out: kinase activity inhibited (% inhibition)
Chain of TAOK1 (Q7L7X3 whole entry): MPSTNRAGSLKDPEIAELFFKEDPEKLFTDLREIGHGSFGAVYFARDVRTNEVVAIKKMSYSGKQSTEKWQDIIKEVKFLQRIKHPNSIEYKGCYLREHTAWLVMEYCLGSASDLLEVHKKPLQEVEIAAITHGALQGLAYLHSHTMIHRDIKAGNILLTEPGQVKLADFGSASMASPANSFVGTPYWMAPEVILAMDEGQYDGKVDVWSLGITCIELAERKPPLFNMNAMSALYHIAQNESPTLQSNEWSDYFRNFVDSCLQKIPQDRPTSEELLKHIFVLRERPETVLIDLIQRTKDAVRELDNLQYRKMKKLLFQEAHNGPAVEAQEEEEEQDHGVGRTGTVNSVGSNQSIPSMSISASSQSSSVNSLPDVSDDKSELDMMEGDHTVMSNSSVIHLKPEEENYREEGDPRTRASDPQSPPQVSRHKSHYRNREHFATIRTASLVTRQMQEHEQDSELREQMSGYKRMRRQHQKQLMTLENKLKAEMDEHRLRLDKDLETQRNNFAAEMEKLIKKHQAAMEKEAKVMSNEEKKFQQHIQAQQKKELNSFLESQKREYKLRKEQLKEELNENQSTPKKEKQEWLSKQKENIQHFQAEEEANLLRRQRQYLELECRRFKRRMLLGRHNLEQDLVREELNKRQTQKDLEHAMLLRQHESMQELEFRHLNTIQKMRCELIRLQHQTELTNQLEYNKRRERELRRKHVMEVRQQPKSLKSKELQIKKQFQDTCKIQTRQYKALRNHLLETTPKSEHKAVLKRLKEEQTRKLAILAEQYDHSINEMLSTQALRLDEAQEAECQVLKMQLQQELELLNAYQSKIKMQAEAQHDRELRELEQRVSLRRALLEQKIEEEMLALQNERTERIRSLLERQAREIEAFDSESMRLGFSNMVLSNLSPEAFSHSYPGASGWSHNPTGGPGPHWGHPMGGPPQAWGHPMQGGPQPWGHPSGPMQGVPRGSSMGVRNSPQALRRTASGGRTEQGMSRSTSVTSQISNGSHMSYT
Procedure: as §1, §2

c-Kit = c-Kit (Homo sapiens, UniProt P10721); experiment: kinase inhibition activity, full kinase panel; assay type: biochemical; conditions: 1 μM of the compound; read-out: kinase activity inhibited (% inhibition)
Procedure: as §1, §2

c-Src = c-Src (Homo sapiens, UniProt P12931); experiment: kinase inhibition activity, full kinase panel; assay type: biochemical; conditions: 1 μM of the compound; read-out: kinase activity inhibited (% inhibition)
Chain of c-Src (P12931 whole entry): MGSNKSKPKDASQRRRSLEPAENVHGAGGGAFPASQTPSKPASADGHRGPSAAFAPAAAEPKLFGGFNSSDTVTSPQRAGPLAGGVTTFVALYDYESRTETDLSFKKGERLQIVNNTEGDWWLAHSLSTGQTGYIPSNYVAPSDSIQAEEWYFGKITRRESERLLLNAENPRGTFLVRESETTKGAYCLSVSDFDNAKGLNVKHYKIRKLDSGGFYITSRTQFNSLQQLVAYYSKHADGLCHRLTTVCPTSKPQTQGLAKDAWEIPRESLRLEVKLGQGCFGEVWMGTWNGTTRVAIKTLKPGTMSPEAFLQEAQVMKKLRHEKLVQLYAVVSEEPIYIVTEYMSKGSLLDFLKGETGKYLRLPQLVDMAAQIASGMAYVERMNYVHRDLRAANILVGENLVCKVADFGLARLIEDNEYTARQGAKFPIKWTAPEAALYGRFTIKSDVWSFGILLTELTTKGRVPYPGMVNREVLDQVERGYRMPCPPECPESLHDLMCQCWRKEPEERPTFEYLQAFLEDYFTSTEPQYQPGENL
Procedure: as §1, §2

[2] = test system: bladder cancer cell line RT112; experiment: inhibition of proliferation of cancer cells; assay type: cell-based; conditions: Homo sapiens, RT-112, read-out: Ability of inhibiting proliferation of RT112 (GI50)
Procedure: The ability of the compound of the present invention of inhibiting the proliferation of the bladder cancer cell line RT112 was determined as the GI50 value.

CYP1A2 = molecular target: T1, CYP1A2 (Homo sapiens, UniProt P05177); experiment: inhibition activity against CYPs (cytochromes P450); assay type: in vitro ADME
T1 sequence (P05177 1-516): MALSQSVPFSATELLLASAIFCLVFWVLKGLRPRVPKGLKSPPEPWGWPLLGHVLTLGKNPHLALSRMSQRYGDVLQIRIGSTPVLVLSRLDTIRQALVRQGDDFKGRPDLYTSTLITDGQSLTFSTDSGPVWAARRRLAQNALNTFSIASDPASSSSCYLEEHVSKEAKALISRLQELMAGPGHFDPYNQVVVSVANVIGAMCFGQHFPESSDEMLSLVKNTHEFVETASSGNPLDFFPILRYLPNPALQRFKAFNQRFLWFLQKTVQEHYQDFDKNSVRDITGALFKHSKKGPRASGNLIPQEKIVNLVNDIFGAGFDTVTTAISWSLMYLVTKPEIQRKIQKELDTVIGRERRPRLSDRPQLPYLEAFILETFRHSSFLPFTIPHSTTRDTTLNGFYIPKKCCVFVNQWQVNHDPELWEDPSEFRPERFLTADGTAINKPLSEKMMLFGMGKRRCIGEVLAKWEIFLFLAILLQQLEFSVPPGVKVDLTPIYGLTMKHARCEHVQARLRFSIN
Procedure: (§3) The inhibition activity (inhibition rate, %) of N-(2,6-dichloro-3,5-dimethoxyphenyl)-1-(6-((4-(4-ethylpiperazin-1-yl)phenyl)amino)pyrimidin-4-yl)-1H-benz[d]imidazol-2-amine synthesized in Example 1, as a representative compound of the present invention, against CYPs (cytochromes P450) was measured in order to investigate the risk of drug side effects.

CYP2C19 = CYP2C19 (Homo sapiens, UniProt P33261); experiment: as above; assay type: in vitro ADME
Chain of CYP2C19 (P33261 whole entry): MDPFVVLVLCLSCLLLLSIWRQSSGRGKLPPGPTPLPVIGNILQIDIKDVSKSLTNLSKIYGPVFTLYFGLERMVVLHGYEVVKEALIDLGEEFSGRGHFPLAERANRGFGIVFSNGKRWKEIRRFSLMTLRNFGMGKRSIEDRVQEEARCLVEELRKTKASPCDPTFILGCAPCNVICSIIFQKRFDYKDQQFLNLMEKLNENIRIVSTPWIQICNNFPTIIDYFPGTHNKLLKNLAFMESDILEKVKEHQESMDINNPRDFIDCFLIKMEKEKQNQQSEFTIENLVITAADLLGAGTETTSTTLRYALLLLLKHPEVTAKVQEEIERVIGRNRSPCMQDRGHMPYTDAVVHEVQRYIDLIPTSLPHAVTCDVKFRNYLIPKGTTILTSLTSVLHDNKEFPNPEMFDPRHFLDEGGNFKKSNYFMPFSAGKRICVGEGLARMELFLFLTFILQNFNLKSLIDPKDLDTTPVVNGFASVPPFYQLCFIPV
Procedure: as §3

CYP2D6 = CYP2D6 (Homo sapiens, UniProt P10635); experiment: as above; assay type: in vitro ADME
Chain of CYP2D6 (P10635 whole entry): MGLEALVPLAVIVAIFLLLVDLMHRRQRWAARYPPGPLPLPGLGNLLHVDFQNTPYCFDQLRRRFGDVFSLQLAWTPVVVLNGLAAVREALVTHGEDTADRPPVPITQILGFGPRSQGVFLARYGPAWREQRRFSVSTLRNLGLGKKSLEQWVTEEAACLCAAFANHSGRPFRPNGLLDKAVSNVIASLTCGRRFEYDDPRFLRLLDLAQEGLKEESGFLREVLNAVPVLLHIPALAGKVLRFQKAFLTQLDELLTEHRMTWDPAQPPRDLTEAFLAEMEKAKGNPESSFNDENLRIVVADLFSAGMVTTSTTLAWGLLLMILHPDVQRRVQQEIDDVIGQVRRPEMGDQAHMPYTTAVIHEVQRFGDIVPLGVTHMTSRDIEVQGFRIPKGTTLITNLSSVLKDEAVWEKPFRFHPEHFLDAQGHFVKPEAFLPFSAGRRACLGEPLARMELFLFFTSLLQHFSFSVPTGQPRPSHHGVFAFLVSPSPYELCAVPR
Procedure: as §3

CYP3A4 = CYP3A4 (Homo sapiens, UniProt P08684); experiment: as above; assay type: in vitro ADME
Chain of CYP3A4 (P08684 whole entry): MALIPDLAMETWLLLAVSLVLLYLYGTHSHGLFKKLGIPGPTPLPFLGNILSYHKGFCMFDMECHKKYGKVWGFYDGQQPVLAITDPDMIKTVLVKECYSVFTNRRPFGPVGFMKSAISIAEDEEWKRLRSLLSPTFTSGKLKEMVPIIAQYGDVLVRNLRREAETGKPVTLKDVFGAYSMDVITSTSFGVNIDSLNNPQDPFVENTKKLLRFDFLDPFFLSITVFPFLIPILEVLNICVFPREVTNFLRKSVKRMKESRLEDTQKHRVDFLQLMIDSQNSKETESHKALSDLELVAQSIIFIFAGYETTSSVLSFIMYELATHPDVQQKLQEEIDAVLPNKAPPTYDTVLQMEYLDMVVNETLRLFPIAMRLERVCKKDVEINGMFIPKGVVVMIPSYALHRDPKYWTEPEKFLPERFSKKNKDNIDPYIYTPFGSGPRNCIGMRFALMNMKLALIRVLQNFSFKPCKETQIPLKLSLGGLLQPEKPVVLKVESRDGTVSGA
Procedure: as §3

microsomal stability [3] = assay type: in vitro ADME, Mouse; conditions: for microsomal stability (% at time) / microsomal stability (% at time), Negative control (excluding NADPH): Mouse
Procedure: (§4) The microsomal stability of N-(2,6-dichloro-3,5-dimethoxyphenyl)-1-(6-((4-(4-ethylpiperazin-1-yl)phenyl)amino)pyrimidin-4-yl)-1H-benz[d]imidazol-2-amine synthesized in Example 1, as a representative compound of the present invention, was evaluated.

microsomal stability [4] = assay type: in vitro ADME, Human; conditions: for microsomal stability (% at time): Human
Procedure: as §4

[5] = from 0.1-50 μM, unit from the table's concentration head, read-out: Expected IC50

Chain of (Homo sapiens, UniProt P09769) (P09769 2-529 limits assumed): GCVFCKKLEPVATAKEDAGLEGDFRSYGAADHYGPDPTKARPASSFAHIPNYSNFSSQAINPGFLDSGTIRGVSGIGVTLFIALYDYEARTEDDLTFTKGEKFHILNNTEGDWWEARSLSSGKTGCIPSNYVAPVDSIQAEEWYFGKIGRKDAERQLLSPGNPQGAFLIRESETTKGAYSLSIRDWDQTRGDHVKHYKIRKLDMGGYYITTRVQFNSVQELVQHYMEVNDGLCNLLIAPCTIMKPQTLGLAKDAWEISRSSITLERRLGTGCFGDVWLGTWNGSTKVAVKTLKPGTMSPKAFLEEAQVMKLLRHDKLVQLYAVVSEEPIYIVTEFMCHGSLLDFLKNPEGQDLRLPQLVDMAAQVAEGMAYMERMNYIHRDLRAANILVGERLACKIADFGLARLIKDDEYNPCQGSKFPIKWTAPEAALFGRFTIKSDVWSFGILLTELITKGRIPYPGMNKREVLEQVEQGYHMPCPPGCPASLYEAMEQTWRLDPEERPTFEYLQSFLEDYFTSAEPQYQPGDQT

Question: What does the source list for CCN1CCN(c2ccc(Nc3cc(-n4c(Nc5c(Cl)c(OC)cc(OC)c5Cl)nc5ccccc54)ncn3)cc2)CC1 [Example 1, N-(2,6-dichloro-3,5-dimethoxyphenyl)-1-(6-((4-(4-ethylpiperazin-1-yl)phenyl)amino)pyrimidin-4-yl)-1H-benz[d]imidazol-2-amine]?
Answer: inhibition at 1 µM [1]: ≥ 50%; inhibition at 1 µM (ACK1): ≥ 50%; inhibition at 1 µM (ALK): ≥ 50%; inhibition at 1 µM (FMS): ≥ 50%; inhibition at 1 µM (LCK): ≥ 50%; inhibition at 1 µM (SIK1): ≥ 50%; inhibition at 1 µM (TAOK1): ≥ 50%; inhibition at 1 µM (c-Kit): ≥ 50%; inhibition at 1 µM (c-Src): ≥ 50%; GI50 [2]: < 1 µM; IC50 (CYP1A2; [5]): > 50 µM; inhibition at 0.1 µM (CYP1A2; human, concentration 0.1 μM): 5.36%; inhibition at 0.5 µM (CYP1A2; human, concentration 0.5 μM): 4.67%; inhibition at 5 µM (CYP1A2; human, concentration 5 μM): -1.9%; inhibition at 10 µM (CYP1A2; human, concentration 10 μM): -3.46%; inhibition at 25 µM (CYP1A2; human, concentration 25 μM): -3.11%; inhibition at 50 µM (CYP1A2; human, concentration 50 μM): 2.08%; inhibition activity against CYP, statement in words (CYP1A2; summary of Table 5): no inhibition activity; inhibition at 10 µM (CYP2C19; concentration 10 μM): 37.3%; IC50 (CYP2C19; [5]): 16.6 µM; inhibition at 0.1 µM (CYP2C19; human, concentration 0.1 μM): 2.72%; inhibition at 0.5 µM (CYP2C19; human, concentration 0.5 μM): 3.23%; inhibition at 5 µM (CYP2C19; human, concentration 5 μM): 30%; inhibition at 25 µM (CYP2C19; human, concentration 25 μM): 66.1%; inhibition at 50 µM (CYP2C19; human, concentration 50 μM): 68%; inhibition activity against CYP, statement in words (CYP2C19; summary of Table 5): no inhibition activity; inhibition at 10 µM (CYP2D6; concentration 10 μM): 6.12%; IC50 (CYP2D6; [5]): > 50 µM; inhibition at 0.1 µM (CYP2D6; human, concentration 0.1 μM): -3.15%; inhibition at 0.5 µM (CYP2D6; human, concentration 0.5 μM): -4.76%; inhibition at 5 µM (CYP2D6; human, concentration 5 μM): -2.56%; inhibition at 25 µM (CYP2D6; human, concentration 25 μM): 13.6%; inhibition at 50 µM (CYP2D6; human, concentration 50 μM): 13.4%; inhibition activity against CYP, statement in words (CYP2D6; summary of Table 5): no inhibition activity; inhibition at 10 µM (CYP3A4; concentration 10 μM): 31.8%; IC50 (CYP3A4; [5]): 32.4 µM; inhibition at 0.1 µM (CYP3A4; human, concentration 0.1 μM): 3.09%; inhibition at 0.5 µM (CYP3A4; human, concentration 0.5 μM): 3.7%; inhibition at 5 µM (CYP3A4; human, concentration 5 μM): 24.4%; inhibition at 25 µM (CYP3A4; human, concentration 25 μM): 49.7%; inhibition at 50 µM (CYP3A4; human, concentration 50 μM): 55.5%; inhibition activity against CYP, statement in words (CYP3A4; summary of Table 5): no inhibition activity; microsomal stability (% at time) (microsomal stability [3]; 0 min): 100.00%; microsomal stability (% at time), Negative control (excluding NADPH) (microsomal stability [3]; 0 min): 100.00%; microsomal stability (% at time) (microsomal stability [3]; 5 min): 62.73%; microsomal stability (% at time), Negative control (excluding NADPH) (microsomal stability [3]; 5 min): 103.56%; microsomal stability (% at time) (microsomal stability [3]; 10 min): 40.77%; microsomal stability (% at time), Negative control (excluding NADPH) (microsomal stability [3]; 10 min): 103.56%; microsomal stability (% at time) (microsomal stability [3]; 15 min): 29.27%; microsomal stability (% at time), Negative control (excluding NADPH) (microsomal stability [3]; 15 min): 102.67%; microsomal stability (% at time) (microsomal stability [3]; 30 min): 11.88%; microsomal stability (% at time), Negative control (excluding NADPH) (microsomal stability [3]; 30 min): 106.67%; microsomal stability (% at time) (microsomal stability [3]; 45 min): 3.87%; microsomal stability (% at time), Negative control (excluding NADPH) (microsomal stability [3]; 45 min): 106.67%; microsomal stability (% at time) (microsomal stability [3]; 60 min): 3.64%; microsomal stability (% at time), Negative control (excluding NADPH) (microsomal stability [3]; 60 min): 104.44%; half-life (microsomal stability [3]; microsomes, Mouse microsomal stability): 9.93 min; microsomal stability (% at time) (microsomal stability [4]; 0 min): 100.00%; microsomal stability (% at time) (microsomal stability [4]; 5 min): 80.36%; microsomal stability (% at time) (microsomal stability [4]; 10 min): 76.63%; microsomal stability (% at time) (microsomal stability [4]; 15 min): 64.04%; microsomal stability (% at time) (microsomal stability [4]; 30 min): 51.45%; microsomal stability (% at time) (microsomal stability [4]; 45 min): 37.62%; microsomal stability (% at time) (microsomal stability [4]; 60 min): 36.17%; half-life (microsomal stability [4]; microsomes, Human microsomal stability): 33.9 min
